Laboratory results: patent US11352322B2, “Cyclopropyl-amide compounds as dual LSD1/HDAC inhibitors” (Jubilant Epicore LLC, priority 2016, dated 2022)
Where a name gives a salt, the structure may show the parent alone. Read-outs that look alike come from different tables or passages of the source.

Experiments:
[1] = target: HDAC6 human recombinant enzyme (Homo sapiens (Human), UniProt Q9UBN7); assay: Histone Deacetylase Assay (BPS Biosciences), HDAC6; assay type: biochemical
Text: Histone Deacetylase Assay (BPS Biosciences)
Histone deacetylase assay was done as per manufacturer's instructions.

[2] = In vivo PK studies in mice; parameters: species or system Male Balb/C mice
Procedure: In Vivo PK Studies in Mice
All the animal experiments were approved by Institutional Animal Ethical Committee (IAEC/JDC/2015/72). Male Balb/C mice (n=24) were procured from Vivo Biotech, Hyderabad, India. The animals were housed in Jubilant Biosys animal house facility in a temperature (22±2° C.) and humidity (30-70%) controlled room (15 air changes/hour) with a 12:12 h light:dark cycles, had free access to rodent feed (Altromin Spezialfutter GmbH & Co. KG., Im Seelenkamp 20, D-32791, Lage, Germany) and water for one week before using for experimental purpose. Following ˜4 h fast (during the fasting period animals had free access to water) animals were divided into two groups (n=12/group). […] Post-dosing serial blood samples (100 μL, sparse sampling was done and at each time point three mice were used for blood sampling) were collected using Micropipettes (Microcaps®; catalogue number: 1-000-0500) through tail vein into polypropylene tubes containing K2.EDTA solution as an anti-coagulant at 0.25, 0.5, 1, 2, 4, 8, 10 and 24 (for oral study) and 0.12, 0.25, 0.5, 1, 2, 4, 8 and 24 (for intravenous study). Plasma was harvested by centrifuging the blood using Biofuge (Hereaus, Germany) at 1760 g for 5 min and stored frozen at −80±10° C. until analysis. Animals were allowed to access feed 2 h post-dosing.
Plasma concentration-time data of the compound was analyzed by non-compartmental method using Phoenix WinNonlin Version 6.3 (Pharsight Corporation, Mountain View, Calif.).

[3] = target: LSD1 (Homo sapiens (Human), UniProt O60341); assay: TR-FRET Assay for LSD1; conditions: read-out: LSD1 IC50
Procedure: TR-FRET Assay for LSD1 (Perkin Elmer)
Tranylcypromine (TCP), LSD1 inhibitor was procured from Selleckchem. […] Stop Solution containing 300 μM tranylcypromine in 1× LANCE Detection Buffer was added to the wells and incubated for 5 min at RT. Then, Detection mix containing 2 nM Eu-Ab and 50 nM ULight-Streptavidin in 1× LANCE Detection Buffer was prepared and added to the reaction mix. This mixture was incubated for 1 hour at room temperature.

[4] = Metabolic stability in liver microsomes, HLM; conditions: 1 μM, NADPH
Procedure: (§1) The microsomal suspension was prepared by adding liver microsomes to 100 mM potassium phosphate buffer (pH7.4) to give a final protein concentration of 0.5 mg/mL. The stock solution of NCE (10 mM in DMSO) was added to the microsomes to provide a final concentration of 1 μM. […] Samples were vortexed and centrifuged at 5,000 rpm for 10 min to remove proteins. Supernatant were analyzed on LC-MS/MS.

[5] = Metabolic stability in liver microsomes, MLM; conditions: 1 μM, NADPH
Procedure: as §1

[6] = test system: MM1S; assay: Anticancer activity: Alamar Blue assay, MM1S; assay type: cell-based; conditions: Homo sapiens, MM1.S, read-out: MM1S EC50
[7] = male, Balb/C, mouse, plasma, IV 2 mg/kg

Sequence of HDAC6 human recombinant enzyme (Q9UBN7 whole entry): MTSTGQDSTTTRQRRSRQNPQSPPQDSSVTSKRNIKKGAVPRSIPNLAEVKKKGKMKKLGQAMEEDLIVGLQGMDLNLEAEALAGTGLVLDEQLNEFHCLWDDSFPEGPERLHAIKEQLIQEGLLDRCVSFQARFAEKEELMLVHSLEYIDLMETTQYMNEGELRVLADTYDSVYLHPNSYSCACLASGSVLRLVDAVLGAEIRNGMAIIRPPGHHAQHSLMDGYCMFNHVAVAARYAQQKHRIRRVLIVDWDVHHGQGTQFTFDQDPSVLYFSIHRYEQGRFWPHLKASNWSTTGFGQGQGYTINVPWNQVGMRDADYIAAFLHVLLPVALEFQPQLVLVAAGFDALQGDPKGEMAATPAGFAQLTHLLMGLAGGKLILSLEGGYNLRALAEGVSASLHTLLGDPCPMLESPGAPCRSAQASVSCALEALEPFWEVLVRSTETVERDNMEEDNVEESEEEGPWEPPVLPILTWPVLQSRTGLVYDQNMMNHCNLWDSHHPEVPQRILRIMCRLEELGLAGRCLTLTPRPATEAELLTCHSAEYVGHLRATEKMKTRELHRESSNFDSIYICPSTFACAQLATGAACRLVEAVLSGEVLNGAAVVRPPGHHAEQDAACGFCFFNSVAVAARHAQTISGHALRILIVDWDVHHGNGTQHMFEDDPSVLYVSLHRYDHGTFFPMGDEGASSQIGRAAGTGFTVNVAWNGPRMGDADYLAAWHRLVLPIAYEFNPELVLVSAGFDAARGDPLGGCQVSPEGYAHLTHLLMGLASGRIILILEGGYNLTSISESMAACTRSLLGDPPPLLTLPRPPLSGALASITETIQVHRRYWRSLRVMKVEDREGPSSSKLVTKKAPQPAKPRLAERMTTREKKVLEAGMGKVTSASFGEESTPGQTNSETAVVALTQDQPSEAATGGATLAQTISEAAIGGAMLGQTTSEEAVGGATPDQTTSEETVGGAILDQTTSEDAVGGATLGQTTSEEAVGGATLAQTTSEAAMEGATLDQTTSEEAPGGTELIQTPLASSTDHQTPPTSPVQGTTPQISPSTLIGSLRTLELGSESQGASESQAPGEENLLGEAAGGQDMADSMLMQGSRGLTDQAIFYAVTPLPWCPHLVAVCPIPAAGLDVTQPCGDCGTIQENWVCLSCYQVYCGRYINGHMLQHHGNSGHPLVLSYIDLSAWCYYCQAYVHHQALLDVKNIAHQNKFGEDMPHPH

| Structure (SMILES) | IC50 [1] | IC50 [3] | Metabolic stability HLM % remaining in 30 min [4] | Metabolic stability MLM % remaining in 30 min [5] | EC50 [6] | other results |
| --- | --- | --- | --- | --- | --- | --- |
| O=C(NO)c1ccc(CCCN2CCC(CNC3CC3c3ccc(-c4ccc(F)cc4)cc3)CC2)cc1 (stereo not drawn) [Example 57, 4-(3-(4-(((2-(4′-fluoro-[1,1′-biphenyl]-4-yl)cyclopropyl)amino)methyl)piperidin-1-yl)propyl)-N-hydroxybenzamide TFA Salt] | 59 nM | 21 nM | 92% | 75% |  | AUC IV ([2]; IV 2 mg/kg): 169 ng/mL/h; AUC PO ([2]; PO 10 mg/kg): 677 ng/mL/h; C0 [2, 7]: 260 ng/mL; Vd [2, 7]: 28 L/kg; Cmax ([2]; male, Balb/C, mouse, plasma, IV 2 mg/kg, read-out: CMax IV): 254 ng/mL; clearance ([2]; male, Balb/C, mouse, plasma, IV 2 mg/kg, read-out: Cl IV): 190 mL/min/kg; half-life ([2]; male, Balb/C, mouse, plasma, IV 2 mg/kg, read-out: t1/2 IV (converted)): 1.71 h; Cmax ([2]; male, Balb/C, mouse, plasma, PO 10 mg/kg, read-out: CMax PO): 217 ng/mL; half-life ([2]; male, Balb/C, mouse, plasma, PO 10 mg/kg, read-out: t1/2 PO (converted)): 1.83 h; bioavailability ([2]; male, Balb/C, mouse, plasma, dose IV/PO 2/10 mg/kg): 80% |
| O=C(NO)c1ccc(/C=C/C(=O)N2CCC(CN[C@H]3C[C@@H]3c3ccc(F)cc3)CC2)cc1 [Example 115, 4-((E)-3-(4-((((1S,2R)-2-(4-fluorophenyl)cyclopropyl)amino)methyl)piperidin-1-yl)-3-oxoprop-1-en-1-yl)-N-hydroxybenzamide TFA Salt] | 53 nM | 65 nM | 75% | 45% |  | EC50 ([6]; MM1S cells): 10 nM |
| O=C(NO)c1ccc(/C=C/C(=O)N2CCC(CNC3CC3c3ccc(-c4cncnc4)cc3)CC2)cc1 (stereo not drawn) [Example 117, (E)-N-hydroxy-4-(3-oxo-3-(4-(((2-(4-(pyrimidin-5-yl)phenyl)cyclopropyl)amino)methyl)piperidin-1-yl)prop-1-en-1-yl)benzamide TFA Salt] | 74 nM | 46 nM | 80% | 82% | 460 nM |  |
| O=C(NO)c1ccc(/C=C/C(=O)N2CC(CNC3CC3c3ccc(F)cc3)C2)cc1 (stereo not drawn) [Example 118, (E)-4-(3-(3-(((2-(4-fluorophenyl)cyclopropyl)amino)methyl)azetidin-1-yl)-3-oxoprop-1-en-1-yl)-N-hydroxybenzamide TFA Salt] | 58 nM | 37 nM | 77% | 76% | 21 nM |  |
| Cn1cc(-c2ccc(C3CC3NCC3CN(C(=O)/C=C/c4ccc(C(=O)NO)cc4)C3)cc2)cn1 (stereo not drawn) [Example 119, (E)-N-hydroxy-4-(3-(3-(((2-(4-(1-methyl-1H-pyrazol-4-yl)phenyl)cyclopropyl)amino)methyl)azetidin-1-yl)-3-oxoprop-1-en-1-yl)benzamide TFA Salt] | 49 nM | 19 nM | 72% | 49% | 772 nM |  |
| Nc1ccccc1NC(=O)c1ccc(CCCN2CC3(CC(NC4CC4c4ccccc4)C3)C2)cc1 (stereo not drawn) [Example 127, N-(2-aminophenyl)-4-(3-(6-((2-phenylcyclopropyl)amino)-2-azaspiro[3.3]heptan-2-yl)propyl)benzamide TFA Salt] | > 10000 nM | 764 nM | 17% | 19% |  | EC50 ([6]; MM1S cells): 126 nM |
| Nc1ccc(F)cc1NC(=O)c1ccc(CCCN2CCC(CNC3CC3c3ccc(F)cc3)CC2)cc1 (stereo not drawn) [Example 132, N-(2-amino-5-fluorophenyl)-4-(3-(4-(((2-(4-fluorophenyl)cyclopropyl)amino)methyl)piperidin-1-yl)propyl)benzamide TFA Salt] | > 10000 nM | 5 nM | 81% | 80% | 21 nM |  |
| Nc1ccccc1NC(=O)c1ccc(CCC(=O)N2CCC(CNC3CC3c3ccccc3)CC2)cc1 (stereo not drawn) [Example 134, N-(2-aminophenyl)-4-(3-oxo-3-(4-(((2-phenylcyclopropyl)amino)methyl)piperidin-1-yl)propyl)benzamide TFA Salt] | > 10000 nM | 42 nM | 10/10% | 10/10% | 174 nM |  |
| Nc1ccccc1NC(=O)c1ccc(CCCn2cnc(CNC3CC3c3ccccc3)c2)cc1 (stereo not drawn) [Example 136, N-(2-aminophenyl)-4-(3-(4-(((2-phenylcyclopropyl)amino)methyl)-1H-imidazol-1-yl)propyl)benzamide TFA Salt] | > 10000 nM | 570 nM | 4% | 3% | 174 nM |  |
| Nc1ccccc1NC(=O)c1ccc(CN2CCC(CN[C@@H]3C[C@H]3c3ccccc3)CC2)cc1 [Example 140, N-(2-aminophenyl)-4-((4-((((1R,2S)-2-phenylcyclopropyl)amino)methyl)piperidin-1-yl)methyl)benzamide TFA Salt] | > 10000 nM | 2 nM | 85% | 83% | 2 nM |  |
| Cn1cc(-c2ccc(C3CC3NCC3CCN(Cc4ccc(C(=O)Nc5ccccc5N)cc4)CC3)cc2)ccc1=O (stereo not drawn) [Example 141, N-(2-aminophenyl)-4-((4-(((2-(4-(1-methyl-6-oxo-1,6-dihydropyridin-3-yl)phenyl)cyclopropyl)amino)methyl)piperidin-1-yl)methyl)benzamide TFA Salt] | > 10000 nM | 30 nM | 88% | 75% | 194 nM |  |
| Cc1noc(C)c1-c1ccc(C2CC2NCC2CCN(Cc3ccc(C(=O)Nc4ccccc4N)cc3)CC2)cc1 (stereo not drawn) [Example 143, N-(2-aminophenyl)-4-((4-(((2-(4-(3,5-dimethylisoxazol-4-yl)phenyl)cyclopropyl)amino)methyl)piperidin-1-yl)methyl)benzamide TFA Salt] | > 10000 nM | 37 nM | 37% | 50% | 102 nM |  |
| Nc1ccccc1NC(=O)c1ccc(CN2CCC(CNC3CC3c3ccc(-c4cncnc4)cc3)CC2)cc1 (stereo not drawn) [Example 144, N-(2-aminophenyl)-4-((4-(((2-(4-(pyrimidin-5-yl)phenyl)cyclopropyl)amino)methyl)piperidin-1-yl)methyl)benzamide TFA Salt] | > 10000 nM | 41 nM | 68% | 52% | 152 nM |  |
| Nc1ccccc1NC(=O)c1ccc(CC(=O)N2CCC(CNC3CC3c3ccc(F)cc3)CC2)cc1 (stereo not drawn) [Example 147, N-(2-aminophenyl)-4-(2-(4-(((2-(4-fluorophenyl)cyclopropyl)amino)methyl)piperidin-1-yl)-2-oxoethyl)benzamide TFA Salt] | > 10000 nM | 32 nM | 48% | < 5% | 29 nM |  |
| Nc1ccccc1NC(=O)c1ccc(OCCNC2CC2c2ccc(F)cc2)cc1 (stereo not drawn) [Example 148, N-(2-aminophenyl)-4-(2-((2-(4-fluorophenyl)cyclopropyl)amino)ethoxy) benzamide TFA Salt] | > 10000 nM | 24 nM | 46% | 34% |  | EC50 ([6]; MM1S cells): 40 nM |
| Nc1ccccc1NC(=O)c1cnc(NCCN2CCC(CNC3CC3c3ccc(F)cc3)CC2)nc1 (stereo not drawn) [Example 150] | > 10000 nM | 16 nM | >95/>95% | >95/>95% |  | EC50 ([6]; MM1S cells): 411 nM |
| Nc1ccccc1NC(=O)c1ccc(/C=C/C(=O)N2CCC(CNC3CC3c3ccc(F)cc3)CC2)cc1 (stereo not drawn) [Example 156] | > 10000 nM | 186 nM | 58% | 49% |  | EC50 ([6]; MM1S cells): 97 nM |
| Nc1ccccc1NC(=O)c1ccc(/C=C/C(=O)N2CC(CNC3CC3c3ccc(F)cc3)C2)cc1 (stereo not drawn) [Example 157, (E)-N-(2-aminophenyl)-4-(3-(3-(((2-(4-fluorophenyl)cyclopropyl)amino)methyl)azetidin-1-yl)-3-oxoprop-1-en-1-yl)benzamide TFA Salt] | > 10000 nM | 58 nM | 53% | 63% | 167 nM |  |
